Reference: patent US20240336595A1, “BIFUNCTIONAL COMPOUNDS FOR DEGRADING BTK WITH DIMINISHED IMID ACTIVITY” (NURIX THERAPEUTICS, INC., priority 2021, published 2024)
“Also recorded” adds a separate entry of the source.

Experiments:
BTK = BTK (Mus musculus, UniProt P35991); experiment: BTK level in B cells of dosed mice; assay type: in vivo, C57BL/6 mice; design: Single cell suspensions from each tissue were permeabilized and stained for lineage markers and intracellular BTK; from tissue; conditions: 30 mg/kg in water bottle; blood, spleens, peritoneum and bone marrow
Sequence of BTK (P35991 whole entry): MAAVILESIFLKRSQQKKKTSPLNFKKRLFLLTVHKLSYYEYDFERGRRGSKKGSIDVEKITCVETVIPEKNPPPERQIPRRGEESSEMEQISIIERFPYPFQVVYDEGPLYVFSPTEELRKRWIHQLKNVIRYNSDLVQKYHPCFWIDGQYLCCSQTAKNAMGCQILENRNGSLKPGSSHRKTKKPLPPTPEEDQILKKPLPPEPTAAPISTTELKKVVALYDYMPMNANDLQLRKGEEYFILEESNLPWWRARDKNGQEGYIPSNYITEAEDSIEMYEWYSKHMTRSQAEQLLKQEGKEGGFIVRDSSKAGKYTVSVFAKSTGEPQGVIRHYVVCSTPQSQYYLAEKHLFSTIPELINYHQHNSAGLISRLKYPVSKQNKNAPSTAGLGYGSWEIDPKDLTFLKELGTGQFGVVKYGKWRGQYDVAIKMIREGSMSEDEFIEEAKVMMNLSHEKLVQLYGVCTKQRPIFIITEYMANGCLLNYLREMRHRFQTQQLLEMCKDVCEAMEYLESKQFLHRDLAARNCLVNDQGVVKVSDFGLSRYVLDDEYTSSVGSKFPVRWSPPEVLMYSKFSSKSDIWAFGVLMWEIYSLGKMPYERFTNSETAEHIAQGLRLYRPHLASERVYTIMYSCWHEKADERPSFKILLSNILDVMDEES
Procedure: (§1) A separate group of mice received vehicle formulation as control. Blood spleens and femurs for each treated mice were harvested at the end of the study. Peritoneal lavage was also performed with PBS to harvest peritoneal resident lymphocyte.
To evaluate level of BTK in B cells, Single cell suspensions from each tissue were permeabilized and stained for lineage markers and intracellular BTK. B cells were gated on B220+ TCRbeta−, and T cells were gated on B220− and TCRbeta+.

[1] = system: collagen-induced arthritis (CIA) model; experiment: Collagen-induced arthritis (CIA) model; assay type: in vivo; conditions: mouse CIA, daily oral 30 mg/kg
Description: Immunization with Collagen Type II (CII) in an adjuvant induces polyarthritis in rodents. This model known as the collagen-induced arthritis (CIA) model, is widely used for studying arthritis and resemble many aspect of the human disease. High level of anti-collagen II correlates with disease severity. In FIG. 1 CIA was induced by immunization with type II collagen in complete Freund's adjuvant on Day 0. A second boost was given on Day 21. Treatment with vehicle or therapeutic agents was initiated on Day 18 and continued to day 35. At the end of the study on Day 36, serum was collected. […] Significance of clinical arthritis score (A) was determined from the area under the curve (AUC) of mean paw scores calculated for individual mice. (C) Serum levels of anti-type II collagen IgG. Statistical significance was determined between vehicle control and treated groups with one-way Kruskal-Wallis ANOVA and Dunn's multiple comparisons test.

[2] = system: well-established arthritis; experiment: Mouse model of well-established arthritis, clinical arthritis score; assay type: in vivo, male DBA/1 mice
tumor-expressed BTK = biological target: T1, tumor-expressed BTK (Homo sapiens, UniProt Q06187); experiment: Intracranial TMD8 tumor model, BTK remaining in TMD8 cells; assay type: in vivo, female CB.17 SCID mice; conditions: 90 mg/kg orally every day for twelve days, vs vehicle
T1 construct: endogenous in cells; host or cells: TMD8 cells (human ABC-DLBCL) grown intracranially in CB.17 SCID mice
T1 sequence (Q06187 whole entry): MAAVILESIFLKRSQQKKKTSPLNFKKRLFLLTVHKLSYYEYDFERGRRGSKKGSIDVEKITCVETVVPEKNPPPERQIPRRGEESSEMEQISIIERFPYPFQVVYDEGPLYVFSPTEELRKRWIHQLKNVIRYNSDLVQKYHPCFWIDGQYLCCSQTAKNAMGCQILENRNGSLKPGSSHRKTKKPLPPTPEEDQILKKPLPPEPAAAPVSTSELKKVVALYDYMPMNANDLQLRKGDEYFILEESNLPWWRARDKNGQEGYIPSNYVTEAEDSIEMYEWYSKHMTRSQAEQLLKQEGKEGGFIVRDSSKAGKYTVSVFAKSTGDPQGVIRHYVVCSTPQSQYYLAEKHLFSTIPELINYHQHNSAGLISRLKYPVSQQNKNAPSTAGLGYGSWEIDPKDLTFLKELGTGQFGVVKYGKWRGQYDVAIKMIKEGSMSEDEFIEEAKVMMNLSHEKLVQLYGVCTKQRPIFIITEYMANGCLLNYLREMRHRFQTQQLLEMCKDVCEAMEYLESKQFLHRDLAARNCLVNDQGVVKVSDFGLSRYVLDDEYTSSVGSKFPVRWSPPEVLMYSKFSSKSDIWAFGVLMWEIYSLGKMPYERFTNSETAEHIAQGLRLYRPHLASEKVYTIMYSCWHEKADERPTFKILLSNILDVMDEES
Procedure: TMD8 cells were implanted into female CB.17 SCID mice by intracranial injection of 5E5 TMD8 cells. Treatment with compound 1 begun the following day. Mice were treated orally every day for twelve days with either vehicle or 90 mg/kg of Compound 1. Brains were then harvested, dissociated into single cell suspensions and BTK level in TMD8 cells was assessed by flow cytometry. TMD8 cells in dissociated brain tissue were identified by human-specific surface markers (CD20+HLA+) and total numbers of TMD8 cells per brain is reported in (A, tumor burden). Percent BTK remaining in TMD8 cells (B) was calculated according to the below formula:
100*(tumor BTK MFI−background MFI)/(peak MFI−background MFI),
where background MFI and peak MFI were calculated using TMD8 cells treated, in vitro, overnight with 1 μM compound 1 or DMSO control, respectively. In FIG. 8,**** p<0.0001; Welch's t-test was used to compare mice treated with compound 1 to mice treated with vehicle.

plasma cells = experiment: Plasma cell counts in spleen and bone marrow, established arthritis model; assay type: in vivo, male DBA/1 mice
Description: (B) Spleens harvested at the end of the study were dissociated, and red blood cells were lysed with ammonium-chloride-potassium (ACK) lysis buffer. 1.5 million cells per spleen were stained for flow cytometry, and live single lymphocytes were gated for plasma cells (CD138+ IgD−). Plasma cells numbers were normalized to total B cells in spleen (CD19+B220+).
(C) Bone marrow was isolated from femurs harvested at the end of the study, and samples were processed and analyzed as in (B).
In (B) and (C), ordinary one-way ANOVAs with Dunnett's multiple comparisons tests were performed.

plasma cell generation = experiment: Plasma cell generation upon NP-KLH immunization; assay type: in vivo, Mice
Procedure: Mice were immunized by intraperitoneal injection of 200 μL of immunogen containing 100 μg NP-32-KLH (Biosearch Technologies, Cat. N-5060-25,Lot. 156285-01) and 1% Alum (Alhydrogel, 2%, Invivogen Cat. Vac-alu-250, Batch 0001715532, Exp. July 2022), prepared in phosphate buffered saline. Group 1 mice were not immunized and used as control. Mice in Group 2 to 5 were dosed orally once a day from Day 1 to Day 7 with compounds or vehicle for six additional days and then sacrificed the following day. Splenocytes and bone marrow were harvested 24 hours following the final dosing of compound on Day 7. Spleens harvested at the end of the study were dissociated, and red blood cells were lysed with ammonium-chloride-potassium (ACK) lysis buffer. 1 million cells per tissue were stained for each flow cytometry panel.
Splenocytes were stained for lineage markers with fluorophore-conjugated antibodies and for NP hapten reactivity with NP-conjugated to phycoerythrin (NP-PE). Live single lymphocytes were gated for B cells (CD19+B220+) and then gated for IgD+ and IgD− B cells. IgD− B cells were then gated for germinal center B cells (Fas+GL-7+), and germinal center B cells were gated for NP+ cells on the basis of staining with NP-PE.
(§2) An ordinary one-way ANOVA with Tukey's multiple comparisons test was performed, and all groups were compared to each other. * p<0.05, ** p<0.01,**** p<0.001. All comparisons without an asterisk were not significant.

B cells compartment = experiment: Dosing effect on B cells compartment (B cells, plasma cells); assay type: in vivo, C57BL/6 mice; conditions: 30 mg/kg in water bottle
Procedure: as §1
It is plausible that Compound 1 affects one or multiple proteins that are involved either in generation or the survival of plasma cells and that this effect is independent from its ability to degrade the BTK protein. Left, representative dot plots showing the gating strategy to identify plasma cells in bone marrow. Right histograms showing cumulative data from multiple treated animals.
as §2

SMILES: CN1CCN([C@@H]2CCCN(c3cnc(C(N)=O)c(Nc4ccc(C5CCN(CC6CCN(c7ccc(C(=O)N[C@H]8CCC(=O)NC8=O)nc7)CC6)CC5)cc4)n3)C2)C1=O [Compound 1]
- BTK level in B cells (BTK): robust BTK degradation
- body weight [1]: minimal effect on body weight; also recorded: minimal body weight loss
- mean arthritis score ([1]; Day 18 to day 35): significant benefit; also recorded: lower mean arthritis score than ibrutinib; also recorded: lower mean arthritis score than standard of care agents
- disease (clinical arthritis score) ([2]; 10 mg/kg or 30 mg/kg once daily oral, started after arthritis was established, to Arthritis Day 14): strongly suppressed disease
- control of disease compared with comparators ([2]; Compound 1 and ibrutinib 30 mg/kg, Enbrel 10 mg/kg i.p., tofacitinib 30 mg/kg twice daily, rilzabrutinib): more potently than anti-TNF-alpha blocking antibody (Enbrel) or BTK inhibitors rilzabrutinib and tofacitinib
- BTK in TMD8 tumor cells (tumor-expressed BTK): degradation of tumor-expressed BTK
- BTK in TMD8 tumor cells (tumor-expressed BTK; listed as compound 1): degraded BTK
- plasma cells in spleen, normalized to total B cells (plasma cells; 30 mg/kg, vs 30 mg/kg rilzabrutinib and ibrutinib): significantly fewer plasma cells than mice treated with an equivalent dose of BTK inhibitors
- plasma cells in spleen, normalized to total B cells (plasma cells; both doses (10 and 30 mg/kg), vs vehicle): significantly fewer plasma cells than vehicle-treated mice
- plasma cell numbers in the bone marrow (plasma cells; vs vehicle and vs equivalent doses of rilzabrutinib and ibrutinib): significantly reduced plasma cell numbers
- generation of plasma cells upon immunization (plasma cell generation; NP-KLH immunization, oral once a day Day 1 to Day 7): significantly decrease
- germinal center formation (plasma cell generation; following NP-KLH immunization): do not affect
- number of B cells in spleen (plasma cell generation; following NP-KLH immunization): do not affect
- number of IgG1+ plasma cells in spleen (plasma cell generation; immunized mice): significantly decrease
- number of total Plasma cells in spleen (plasma cell generation; immunized mice): significantly decrease
- plasma cells number in bone marrow (B cells compartment): significantly reduce
- B cells percentage (B cells compartment; blood, spleens, peritoneum and bone marrow): does not significantly affect
